For one data set, the system named is NCI-H460. Briefly: Proliferation assay of cell lines treated with Compound A, Compound B and fixed-ratio combinations (Cell Titre-Glo, 96 h). The data set is classed as cell-based, human. The conditions noted are these: NCI-H460, single compound, 96 hour exposure.
For a further data set, the system named is HCT 116. Briefly: Proliferation assay, mono and fixed-ratio combinations (Cell Titre-Glo, 96 h). In kind it is cell-based, human. The conditions noted are these: HCT 116, single compound, 96 hour exposure.
Another data set has as its system IGR-OV1. The description is as above. The data set is classed as cell-based, human. The conditions noted are these: IGR-OV1, single compound, 96 hour exposure.
For a further data set, the system named is SK-OV-3. The description is as above. The data set is classed as cell-based, human. The conditions noted are these: SK-OV-3, single compound, 96 hour exposure.
In another data set the test system is Huh-7. The data set is described as above. The data set is classed as cell-based, human. The conditions noted are these: Huh-7, single compound, 96 hour exposure.
Another data set concerns PLC/PRF/5. Described as above. In kind it is cell-based, human. The conditions noted are these: PLC/PRF/5, single compound, 96 hour exposure.
Another data set has as its system SNU-449. The data set is described as above. The data set is classed as cell-based, human. The conditions noted are these: SNU-449, single compound, 96 hour exposure.
The subject of the next data set is MDA-MB-468. The description is as above. The data set is classed as cell-based, human. The conditions noted are these: MDA-MB-468, single compound, 96 hour exposure.
Another data set concerns SUM-149. Described as above. The conditions noted are these: SUM-149, single compound, 96 hour exposure. In kind it is cell-based, human.
Another data set relates to VCaP. Kind of data set: Proliferation assay of prostate cancer cell lines with R1881 (Cell Titre-Glo, 144 h). The conditions noted are these: 0.1 nM R1881, 144 hour exposure, single compound. In kind it is cell-based, human.
Another data set has as its system LNCaP. Described as above. The conditions noted are these: 0.3 nM R1881, 144 hour exposure, single compound. In kind it is cell-based, human.
Another data set concerns C4-2B. The data set is described as above. In kind it is cell-based, human. The conditions noted are these: 0.3 nM R1881, 144 hour exposure, single compound.
The test system of a further data set is 22Rv1. The data set is described as above. In kind it is cell-based, human. The conditions noted are these: 22Rv1, 0.1 nM R1881, 144 hour exposure, single compound.
Another data set has as its system PC-3. Briefly: Proliferation assay of prostate cancer cell lines with R1881 (Cell Titre-Glo, 96 h). In kind it is cell-based, human. The conditions noted are these: PC-3, 0.1 nM R1881, 96 hour exposure, single compound.
A further data set has as its system A2780. Briefly: 72-hour growth assay of ovary cancer cell lines (Cell Titre-Glo). The conditions noted are these: A2780, single compound, 72 hour exposure. The data set is classed as cell-based, human.
The next data set relates to OVCAR-3. The data set is described as above. In kind it is cell-based, human. The conditions noted are these: OVCAR-3, single compound, 72 hour exposure.
For data set [1], the system named is 22Rv1 prostate cancer xenograft. Kind of data set: Human 22Rv1 prostate cancer xenograft model. The data set is classed as in vivo, male Fox Chase SCID mice. On the technique in general: A xenograft is tissue or cells of one species grown in another, often human tumour cells in immunodeficient mice.
Method: (§3) The oral application volume was 10 ml/kg and the intravenous application volume 5 ml/kg. The time interval between two applications per day was 6-7 h. […] The tumor size and the body weight were determined three times weekly. Changes in the body weight compared to the initial body weight at the start of treatment were a measure of treatment-related toxicity (>10%=critical, stoppage in treatment until recovery, >20%=toxic, termination). The tumor area was detected by means of an electronic caliper gauge [length (mm)×width (mm)]. In vivo anti-tumor efficacy is presented as T/C ratio (Treatment/Control) calculated with tumor areas at day of termination of control group by the formula [(tumor area of treatment group at day x)−(tumor area of treatment group at day before first treatment)]/[(tumor area control group at day x)−(tumor area of control group at day before first treatment)]. […] A one-way analysis of variance was performed and differences to the control were compared by a pair-wise comparison procedure (Dunn's method).
Data set [2] has as its system SUM-149 breast cancer xenograft. Briefly: Human SUM-149 breast cancer xenograft model. In kind it is in vivo, female NMRI nude mice.
Method: as §3
Another data set concerns IGR-OV1 cancer xenograft. Kind of data set: Human IGR-OV1 endometrial cancer xenograft model. The data set is classed as in vivo, female NMRI nude mice. The conditions noted are these: IGR-OV1, day 55 after tumor inoculation.
In data set [3] the test system is IGR-OV1 endometrial cancer xenograft. Kind of data set: Human IGR-OV1 endometrial cancer xenograft model. In kind it is in vivo, female NMRI nude mice. The conditions noted are these: IGR-OV1; 10 mg/kg, i.v., once daily, 2 days on/5 days off, days 1, 2 each week.
Method: as §3
The test system of data set [4] is Ri-1 B cell lymphoma xenograft. Kind of data set: Human Ri-1 B cell lymphoma xenograft model. The data set is classed as in vivo, female NOD/SCID mice.
Method: as §3
Data set [5] concerns ovarian cancer cell lines SK-OV-3. Briefly: Full matrix combination, 72-hour proliferation assay (CellTiter-Glo). The data set is classed as cell-based. The conditions noted are these: SK-OV-3, single agent Compound A. On the procedure:
(§1) Percentage of control (DMSO) in tumor cell growth assay in vitro is used for the assessment of combination effects.
(§2) The efficacy parameters were the effects in a 72-hour assay. Tumor cells were cultured in 37° C. incubator in their respective growth medium and serum according to the protocol from providers. […] Cell viability was assessed after 72 hour exposure with the Cell Titre-Glo Luminescent Cell Viability Assay (Promega).
For orientation: ATP-based viability assays read luminescence as a measure of living cells.

For data set [6], the system named is pancreatic cancer cell line Capan-1. Described as above. The data set is classed as cell-based. The conditions noted are these: Capan-1, single agent. On the procedure: as §1, §2
The test system of data set [7] is small cell lung cancer cell line NCI-H1048. The data set is described as above. The data set is classed as cell-based. How it is done:
as §1, §2

Setting [8] is: SUM-149, 10 mg/kg, i.v., once daily, 2 days on/5 days off, days 1, 2 each week.
The mark [9] stands for this setting: Ri-1, 10 mg/kg, i.v., once daily, 2 days on/5 days off, days 1, 2 each week.

Like-named read-outs stand apart in the source and are kept apart here. Marks after values point to notes of the source that are not given here.

The text below walks through data of patent US20210369724A1, “COMBINATION OF ATR KINASE INHIBITORS WITH 2,3-DIHYDROIMIDAZO[1,2-C]QUINAZOLINE COMPOUNDS” (Bayer Aktiengesellschaft, priority 2018, published 2021).

Method for A2780: (§4) The effects of combinations of the present invention were evaluated using combination index isobologram analysis for in vitro assessment. The efficacy parameters were the effects in a 72-hour growth assay. Tumor cells were propagated in a humidified 37° C. incubator in their respective growth medium (RPMI) supplemented with 10% fetal calf serum. […] Cell viability was assessed after 72 hour exposure with the Cell Titre-Glo Luminescent Cell Viability Assay (Promega). […] IC50 isobolograms were plotted with the actual concentrations of the two compounds on the x- and y-axis, and the combination index (CI) was calculated according to the median-effect model of Chou-Talalay [Chou T. C.
Method for C4-2B: (§5) Tumor cells were propagated in a humidified 37° C. incubator in their respective growth medium supplemented with 10% fetal calf serum. […] Cell viability was assessed after 144 hour exposure, except for PC-3 cells where measurement took place after 96 hour exposure, with the Cell Titre-Glo Luminescent Cell Viability Assay (Promega).
Method for HCT 116: (§6) Tumor cells were propagated in a humidified 37° C. incubator in their respective growth medium supplemented 10% fetal calf serum. […] Cell viability was assessed after 96 hour exposure with the Cell Titre-Glo Luminescent Cell Viability Assay (Promega). […] IC50 isobolograms were plotted with the actual concentrations of the two compounds on the x- and y-axis, and the combination index (CI) was calculated according to the median-effect model of Chou-Talalay [Chou T. C.
Method for Huh-7: as §6
Method for IGR-OV1 cancer xenograft: as §3
Method for LNCaP: as §5
Method for MDA-MB-468: (§7) Tumor cells were propagated in a humidified 37° C. incubator in their respective growth medium supplemented 10% fetal calf serum. […] Cell viability was assessed after 96 hour exposure with the Cell Titre-Glo Luminescent Cell Viability Assay (Promega).
Method for NCI-H460: as §6
Method for OVCAR-3: as §4
Method for PC-3: as §5
Method for PLC/PRF/5: as §7
Method for SNU-449: as §7
Method for VCaP: as §5

Broadly, the IC50 is the concentration needed to halve the response being measured. With `COc1c(OCCCN2CCOCC2)ccc2c1N=C(NC(=O)c1cnc(N)nc1)N1CCN=C21.Cl.Cl` [Compound A, 2-amino-N-[7-methoxy-8-(3-morpholin-4-ylpropoxy)-2,3-dihydroimid-azo[1,2-c]quinazolin-5-yl]pyrimidine-5-carboxamide dihydrochloride], the IC50 is 63 nM in the data set on NCI-H460; 95 nM with HCT 116; 19 nM in the data set with IGR-OV1; 82 nM in the data set with SK-OV-3; 21 nM in the data set with Huh-7; 180 nM in the data set on PLC/PRF/5. For the same molecule, the IC50 in the data set with SNU-449 was found to be 100 nM; in the data set with MDA-MB-468, 280 nM; in the data set on SUM-149 it was 10 nM; with VCaP it was 13 nM; in the data set on LNCaP, 8 nM; in the data set with C4-2B it was 92 nM. Moreover, the IC50 with 22Rv1 stood at 50 nM; in the data set with PC-3, 100 nM; in the data set with A2780 it was 37.4 nM; in the data set with OVCAR-3, 120 nM. The “Anti-tumor efficacy of monotherapy compared to control” value in [1] (22Rv1, at the day of control group termination) was “weak to moderate and statistically significant improved anti-tumor efficacy”; in [2] (SUM-149, day 49 after tumor inoculation) it was “weak to moderate and statistically significant improved anti-tumor efficacy”; in the data set with IGR-OV1 cancer xenograft, “good to moderate and statistically significant improved anti-tumor efficacy”; in data set [4] (Ri-1, day 38 after tumor inoculation) it was “good and statistically significant improved anti-tumor efficacy”. Moreover, the “Max. weight loss (%)” value was −8% in [1] (22Rv1, 14 mg/kg, i.v., once daily, 2 days on/5 days off, days 1, 2 each week); −10% in data set [2] (setting [8]); −6% in data set [3]; −11% in data set [4] (setting [9]). The T/C in [1] (22Rv1, 14 mg/kg, i.v., once daily, 2 days on/5 days off, days 1, 2 each week, tumor area at termination of control group) is recorded as 0.51*; in data set [2] (setting [8]), 0.58*; in data set [3], 0.32*; in data set [4] (setting [9]) it was 0.09*. Moreover, the Concentration at which single agent showed anti-proliferative effects in [5] came to 0.025 µM. Besides, the “Concentration at which single agent led to moderate anti-proliferation effects” value in data set [6] was 0.025 µM. Besides, in data set [7] (NCI-H1048, single agent Compound A, 72-hour proliferation assay), the Concentration at which treatment led to tumor killing was 0.025 µM.

`C[C@@H]1COCCN1c1cc(-c2ccnn2C)c2ccnc(-c3ccn[nH]3)c2n1` [Compound B, 2-[(3R)-3-methylmorpholin-4-yl]-4-(1-methyl-1H-pyrazol-5-yl)-8-(1H-pyrazol-5-yl)-1,7-naphthyridine]: the “Concentration at which treatment led to tumor killing” value in [7] worked out at 0.253 µM.
